Molecular target: MAGE-A11:PCF11 (Homo sapiens (Human), UniProt P43364)
Test: TR-FRET single point screening at 15 μM
Type: binding
Parameters: unit not given here
Description: TR-FRET Assays and High-throughput Screen. Terbium-anti-GST antibody, 1 M Tris pH 7.5 1 M MgCl2 and 1 M DTT were purchased from Invitrogen (Carlsbad, CA), BSA was purchased from Sigma (St. Louis, MO). Dimethyl sulfoxide (DMSO) was purchased from Fisher Scientific (Pittsburgh, PA). Black 384-well low volume plates and 384-well polypropylene compound plates were purchased from Corning Incorporated (Tewksbury, MA). The St. Jude FDA drug and Bioactive library (11,293 chemicals), Drug-like library (10,073 chemicals) and Lead-like library (10,041 chemicals) were custom assembled and purchased from commercial sources including Sigma, Microsource (Gaylordsville, CT), selleckchem (Houston, TX), ChemDiv (San Diego, CA), ChemBridge (San Diego, CA), Enamine (Monmouth Jct., NJ), and Life Chemicals (Niagara-on-the-Lake, ON, Canada). They were arrayed (10 mM in DMSO) in 384-well polypropylene compound plates with columns 1, 2, 13 and 14 empty which were reserved for controls.
The TR-FRET assay buffer with a formula of 50 mM Tris pH 7.5, 20 mM MgCl2, 0.1 mg/ml BSA and 1 mM DTT was freshly prepared before each experiment. All TR-FRET assays were performed in black 384-well plates with 20 μl/well assay volume in the TR-FRET assay buffer at room temperature (approximately 25° C.). All peptides or compounds were solubilized in DMSO. To test the competitive activity of peptides or compounds against the interaction between GST-MAGEA11 MHD and FAM-PCF11_4 peptide, 10 μl/well peptide or compound at specified concentration was dispensed into a black 384-well low volume plate, followed by 5 μl/well FAM-PCF11_4 (800 nM), 5 μl/well Tb-anti-GST (20 nM) and GST-MAGEA11 MHD (20 nM). The assay components in each well was then mixed by shaking the plate on an IKA MTS 2/4 digital microtiter plate shaker (IKA Works; Wilmington, NC, USA) at 900 RPM for 1 minute. The plate was further centrifuged in an Eppendorf 5810 centrifuge with an A-4-62 swing-bucket rotor (Eppendorf AG, Hamburg, Germany) at 201 g (1000 rpm) for 30 seconds. The plate was then incubated for 90 min with a lid to avoid light exposure to the assay components. After incubation, the fluorescent emission signals at 520 nm and 490 nm channels of individual wells were measured with a PHERAstar FS plate reader (BMG Labtech; Durham, NC, USA) by using a 340 nm excitation filter, 100 μs delay time, and 200 μs integration time. The TR-FRET fluorescence emission ratio (TR-FRET signal) for each well was presented as 10 000×520 nm/490 nm, which was used directly for curve fitting, or further converted to % Inhibition based on the respective positive and negative controls. The graphic software GraphPad Prism 4.81 (GraphPad Software; La Jolla, CA, USA) was used to generate curves and derive IC50 values of tested peptides or compounds, if applicable.
TR-FRET screen for identifying MAGEA11 small molecule inhibitors was performed as follows. The primary one-concentration screening and subsequent 10 or 20-concentration dose response tests were accomplished with an automated High Throughput Screening system (HighRes Biosolutions, Beverly, MA)^30. In the primary screening, 15 μl/well FAM-PCF11_4 (267 nM) was first dispensed with a Multidrop Combi Reagent Dispenser (Thermo Fisher Scientific, Waltham, MA) to black 384-well low volume assay plates. The plates were spun down with a Velocity11 VSpin microplate centrifuge (Agilent Technologies, Santa Clara, CA). 30 nl/well of 10 mM compound/DMSO solutions, or DMSO alone, were transferred from compound plates (the St. Jude FDA drug and bioactive library, Drug-like library and Lead-like library) or a control plate to the assay plates with a Pin Tool (V&P Scientific, San Diego, CA). The compounds were arrayed in columns 3 to 12 and columns 15 to 24 of compound plates. The controls were arrayed in columns 1, 2, 13 and 14 of a compound plate. […]

[1] = single point TR-FRET screening of quinoline compounds against MAGE-A11:PCF11, 15 μM
[2] = single point TR-FRET screening at 15 μM against MAGE-A11:PCF11

Sequence of MAGE-A11:PCF11 (P43364 218-429): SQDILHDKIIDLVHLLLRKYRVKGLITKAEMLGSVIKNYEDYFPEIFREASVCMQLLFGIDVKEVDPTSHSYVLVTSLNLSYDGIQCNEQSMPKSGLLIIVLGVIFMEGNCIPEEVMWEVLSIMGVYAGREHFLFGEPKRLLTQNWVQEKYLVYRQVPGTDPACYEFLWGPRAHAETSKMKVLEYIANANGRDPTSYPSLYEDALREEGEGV

Row | Compound | TR-FRET signal [1] | TR-FRET signal [2]
1 | CCOC(=O)c1cnc2c(C(F)(F)F)cccc2c1NCCCN1CCOCC1 [SJ000131358] | 10.06 | 
2 | CCOC(=O)c1cnc2c(C)c(C)ccc2c1NCCN(C)C [SJ000134078] |  | 8.538
3 | CCOC(=O)c1cnc2c(Cl)cccc2c1NCCN1CCOCC1 [SJ000163436] |  | −6.529
4 | CCOC(=O)c1cnc2c(C)cc(C)cc2c1NCCN1CCOCC1 [SJ000172983] |  | 8.869
5 | CCOC(=O)c1cnc2c(C)cc(C)cc2c1NCCCN1CCOCC1 [SJ000173725] | 6.494 | 
6 | CCOC(=O)c1cnc2c(C)cc(Cl)cc2c1NCCCN1CCOCC1 [SJ000174094] | −10.52 | 
7 | CCOC(=O)c1cnc2c(Cl)cc(Cl)cc2c1NCCN1CCOCC1 [SJ000175864] |  | −13.06
8 | CCOC(=O)c1cnc2c(Cl)cc(Cl)cc2c1NCCCN1CCOCC1 [SJ000176476] | −2.118 | 
9 | CCOC(=O)c1cnc2ccc(Br)cc2c1NCCCN1CCOCC1 [SJ000176507] | −22 | 
10 | CCOC(=O)c1ccc2ncc(C(=O)OCC)c(NCCCN3CCOCC3)c2c1 [SJ000176583] | 11.26 | 
11 | CCOC(=O)c1cnc2c(OC)cccc2c1NCCCN1CCOCC1 [SJ000180455] | 3.635 | 
12 | CCOC(=O)c1cnc2c(C(=O)OC)cccc2c1NCCN1CCOCC1 [SJ000184799] |  | 4.043
13 | CCOC(=O)c1cnc2c(CC)cccc2c1NCCCN1CCOCC1 [SJ000185196] | −4.499 | 
14 | CCOC(=O)c1cnc2ccc(Cl)cc2c1N1CCN(C)CC1 [SJ000187322] |  | −0.9277
15 | Cc1ccc(S(=O)(=O)N2CCN(c3ccnc4cc(Cl)ccc34)CC2)cc1 [SJ000192519] |  | −38.7
16 | CC(=O)Nc1ccc(S(=O)(=O)N2CCN(c3ccnc4cc(Cl)ccc34)CC2)cc1 [SJ000193862] |  | −16.19
17 | COc1ccc(S(=O)(=O)N2CCN(c3ccnc4cc(Cl)ccc34)CC2)cc1 [SJ000199955] |  | −32.07
18 | O=S(=O)(c1ccc(Br)cc1)N1CCN(c2ccnc3cc(Cl)ccc23)CC1 [SJ000201754] |  | −16.75
19 | O=S(=O)(c1ccc(F)cc1)N1CCN(c2ccnc3cc(Cl)ccc23)CC1 [SJ000203833] |  | −50.64
20 | O=S(=O)(c1ccc(Cl)cc1)N1CCN(c2ccnc3cc(Cl)ccc23)CC1 [SJ000204656] |  | −34.39

Row | Compound | TR-FRET signal [1] | TR-FRET signal [2]
21 | C=CCOCC(O)CN1CCN(c2cc(C)nc3ccccc23)CC1 (stereo not drawn) [SJ000227652] |  | −0.207
22 | Cc1cc(N2CCN(CC(O)CO)CC2)c2ccccc2n1 (stereo not drawn) [SJ000227653] |  | −4.954
23 | Cc1cc(N2CCN(CC(O)COCC(C)C)CC2)c2ccccc2n1 (stereo not drawn) [SJ000227654] |  | −3.251
24 | C#CCOCC(O)CN1CCN(c2cc(C)nc3ccccc23)CC1 (stereo not drawn) [SJ000227655] |  | 6.55
25 | C=CCOCC(O)CN1CCN(c2cc(C(F)(F)F)nc3ccccc23)CC1 (stereo not drawn) [SJ000228017] |  | −2.128
26 | C#CCOCC(O)CN1CCN(c2cc(C(F)(F)F)nc3ccccc23)CC1 (stereo not drawn) [SJ000228018] |  | −9.516
27 | O=S(=O)(c1ccccc1)c1cnc2ccc(Cl)cc2c1N1CCN(Cc2ccccc2)CC1 [SJ000247242] |  | −30.28
28 | CCOc1ccc2ncc(C(=O)c3ccc(OC)cc3)c(N3CCN(CC)CC3)c2c1 [SJ000247243] |  | −9.084
29 | COc1ccc2ncc(C(=O)c3ccccc3)c(N3CCN(C)CC3)c2c1 [SJ000247245] |  | −2.393
30 | COc1ccc2ncc(S(=O)(=O)c3ccccc3)c(N3CCN(Cc4ccccc4)CC3)c2c1 [SJ000247248] |  | −71.16
31 | CCOc1ccc2ncc(S(=O)(=O)c3ccccc3)c(N3CCN(Cc4ccccc4)CC3)c2c1 [SJ000247249] |  | −15.91
32 | CCOc1ccc2ncc(C(=O)c3ccc(C)cc3)c(N3CCN(C)CC3)c2c1 [SJ000247254] |  | −10.61
33 | Cc1ccc2ncc(S(=O)(=O)c3ccccc3)c(N3CCN(Cc4ccccc4)CC3)c2c1 [SJ000247256] |  | 2.673
34 | O=S(=O)(c1ccccc1)c1cnc2ccc(F)cc2c1N1CCN(Cc2ccccc2)CC1 [SJ000247257] |  | −62.28
35 | Cc1ccc(S(=O)(=O)c2cnc3ccccc3c2N2CCN(C)CC2)cc1 [SJ000247268] |  | −13.59
36 | CCOc1ccc2ncc(C(=O)c3ccc(OC)cc3)c(N3CCN(C)CC3)c2c1 [SJ000247277] |  | −18.95
37 | CCc1ccc2ncc(C(=O)c3ccccc3)c(N3CCN(CC)CC3)c2c1 [SJ000247281] |  | −2.261
38 | CCN1CCN(c2c(C(=O)c3ccc(C)cc3)cnc3ccc(OC)cc23)CC1 [SJ000247282] |  | 3.9
39 | CCOc1ccc2ncc(C(=O)c3ccccc3)c(N3CCN(CC)CC3)c2c1 [SJ000247283] |  | −0.2733
40 | CCOc1ccc2ncc(C(=O)c3ccc(C)cc3)c(N3CCN(CC)CC3)c2c1 [SJ000247284] |  | −14.25

Row | Compound | TR-FRET signal [1] | TR-FRET signal [2]
41 | CN1CCN(c2c(S(=O)(=O)c3ccc(Cl)cc3)cnc3ccccc23)CC1 [SJ000247306] |  | −10.14
42 | CCc1ccc2ncc(S(=O)(=O)c3ccc(C)c(C)c3)c(N3CCN(C)CC3)c2c1 [SJ000247332] |  | 2.973
43 | COc1ccc2ncc(S(=O)(=O)c3ccc(C)c(C)c3)c(N3CCN(C)CC3)c2c1 [SJ000247333] |  | −8.554
44 | CCc1ccc2ncc(S(=O)(=O)c3ccc(C)c(C)c3)c(N3CCN(CC)CC3)c2c1 [SJ000247334] |  | −4.712
45 | CCN1CCN(c2c(S(=O)(=O)c3ccc(C)c(C)c3)cnc3ccc(OC)cc23)CC1 [SJ000247335] |  | −4.579
46 | CN1CCN(c2c(C(=O)c3ccccc3)cnc3ccc(Cl)cc23)CC1 [SJ000247338] |  | −5.573
47 | CCOc1ccc(C(=O)c2cnc3ccc(C)cc3c2N2CCN(CC)CC2)cc1 [SJ000247339] |  | −10.81
48 | Cc1ccc(S(=O)(=O)c2cnc3ccc(F)cc3c2N2CCN(C)CC2)cc1C [SJ000247344] |  | −7.627
49 | CCN1CCN(c2c(S(=O)(=O)c3ccc(C)c(C)c3)cnc3ccc(F)cc23)CC1 [SJ000247345] |  | 1.118
50 | CCOc1ccc2ncc(S(=O)(=O)c3ccc(C)c(C)c3)c(N3CCN(C)CC3)c2c1 [SJ000247354] |  | −14.05
51 | CCOc1ccc2ncc(S(=O)(=O)c3ccc(C)c(C)c3)c(N3CCN(CC)CC3)c2c1 [SJ000247355] |  | −13.39
52 | CCN1CCN(c2c(C(=O)c3ccccc3)cnc3ccc(OC)cc23)CC1 [SJ000247365] |  | −0.2733
53 | CCN1CCN(c2c(S(=O)(=O)c3ccc(Cl)cc3)cnc3ccccc23)CC1 [SJ000247367] |  | −2.261
54 | CCc1ccc(S(=O)(=O)c2cnc3ccccc3c2N2CCN(C)CC2)cc1 [SJ000278939] |  | 11.58
55 | CCOC(=O)c1cnc2c(Cl)cccc2c1NCCCN1CCOCC1 [SJ000279431] | 4.102 | 
56 | CCOC(=O)c1cnc2ccc(OC)cc2c1N1CCN(C)CC1 [SJ000279507] |  | −2.791
57 | CCOC(=O)c1cnc2ccc(OCC)cc2c1NCCCN1CCOCC1.Cl [SJ000279525] | 5.532 | 
58 | CCOC(=O)c1cnc2ccc(OCC)cc2c1N1CCN(C)CC1 [SJ000279526] |  | −7.064
59 | CCOC(=O)c1cnc2c(C)cccc2c1NCCCN1CCOCC1 [SJ000279636] | 3.353 | 
60 | CCOC(=O)c1cnc2ccc(C(=O)OC)cc2c1NCCCN1CCOCC1 [SJ000279665] | 10.71 | 
